Where two headings read alike, the source gives them in different places.
Legend:
[1] = tested on: L. donovani promastigotes; assay: L. donovani promastigote viability assay (resazurin); assay type: cell-based, Leishmania donovani; details: for EC50: promastigotes, 48 h, read-out: EC50 L. donovani (pro)
Method: Promastigotes of L. donovani from late log phase culture were diluted to 2.0 × 10^6/mL in M-199 containing 10% FBS, 25 mM HEPES (Gibco 15630-080), 100 µM adenine, 12 mM NaHCO3, 10 µM folic acid, 1% penicillin/streptomycin (Gibco 15140-122) as described previously. Compounds and controls were transferred from compound plates to 384 well assay plates with the use of an acoustic transfer system (ATS, EDC Biosystems, Fremont, CA, USA). Promastigotes were incubated with compounds at 29 °C for 48 h. To measure parasite viability, resazurin sodium salt (7-hydroxy-3H-phenoxazin3-one 10-oxide) was dissolved in PBS and added to each well at a volume of 5 µL (final concentration of 44 µM). After incubating for 4 h at room temperature, fluorescence (ex 571 nm/em 584 nm) was recorded with an Envision (Perkin Elmer, Waltham, MA, USA) microplate fluorescence/luminescence reader. […] For positive and negative control amphotericin B and 0.5% DMSO was used, respectively. Dose response and EC50 analyses were obtained using GraphPad Prism 9 Software (Graph Pad Software Inc., San Diego, CA, USA).

[2] = tested on: L. donovani intracellular amastigotes; assay: L. donovani intracellular amastigote assay in B10R cells (high content imaging); assay type: cell-based, Leishmania donovani
Method: For the intracellular amastigote stage assay, L. donovani was incubated at a density of 1 × 10^6 parasites/mL for six days at 29 °C before infection to enrich the proportion of metacyclic promastigotes. B10R monocyte cell lines were cultured in RPMI supplemented with 10% FBS and 1%penicillin/streptomycin at 37 °C in 5% CO2. After 72 h, cells were counted with a hemocytometer and mixed with the six-day-old parasites. Into 384-well assay plates, that had been pre-spotted with compounds diluted 1000-fold in DMSO, with final assay concentrations ranging from 20 µM to 0.02 µM and tested in biological triplicates., 500 B10R cells and 7000 parasites were dispensed per well in a final volume of 50 µL using a Multidrop Combi liquid dispenser (ThermoScientific, Waltham, MA, USA). Plates were incubated at 37 °C and 5% CO2 for 72 h. Cultures were then fixed with 4% formaldehyde solution for 30 min and stained with 0.5 µg/mL DAPI (diamidino-2-phenylindole). Plates were then imaged using an ImageXpress Micro XLS automated high content imager (Molecular Devices, San Jose, CA, USA) using a 10× air objective. A custom image analysis module generated in ImageXpress was used to count the nuclei of host and parasite cells. EC50 values were obtained using the GraphPad Prism 9 Software with biological triplicates.

[3] = tested on: T. cruzi (infecting C2C12); assay: T. cruzi intracellular amastigote assay in C2C12 cells (high content imaging); assay type: cell-based, Trypanosoma cruzi; details: for EC50: intracellular amastigotes, 72 h, read-out: EC50 T. cruzi (infecting C2C12)
Method: (§1) Mouse C2C12 myoblasts (ATCC CRL-1772) were cultivated in RPMI 1640 medium supplemented with 5% FBS and kept at 37 °C and 5% CO2. T. cruzi CAI-72 trypomastigotes were obtained from the supernatant of C2C12 cells infected four to seven days previously. For the assay, 500 C2C12 cells were mixed with 7500 T. cruzi parasites and seeded into 384-well plates at a 50 µL final volume. Test compounds and reference drugs (Benznidazole and K11777) were pre-spotted into the 384 well black bottom plates prior to the addition of cells and parasites with final assay concentration of 20 µM to 0.02 µM. The plates were incubated at 37 °C^, 5% CO2 for 72 h. Cultures were then fixed with 4% formaldehyde and 0.5 µg/mL DAPI (diamidino-2-phenylindole) was added for staining nucleic acids. Plates were kept protected from light for 1 h and then imaged in an ImageXpress Micro XLS automated high content imager (Molecular Devices, San Jose, CA, USA). Imaging and data analysis were performed as described for L. donovani amastigotes on biological triplicates.

[4] = tested on: C2C12 cells; assay: Cytotoxicity to C2C12 host cells; assay type: cell-based; details: mouse myoblast host cells, 72 h
Method: as §1

[5] = tested on: S. mansoni, adult worm; assay: S. mansoni adult worm ex vivo phenotypic screen (severity score); assay type: cell-based, Schistosoma mansoni; details: for severity score, adult S. mansoni: maximum of 4; for S. mansoni, adult worm: least concentration at which a severity score of 4 was recorded: after 24 h, tested at 10, 5, 2.5 and 1.25 µM, EC50
Excerpt: The Naval Medical Research Institute (NMRI) isolate of S. mansoni was used. The parasite was cycled between Biomphalaria glabrata snails and male Golden Syrian hamsters (infected at 4–6 weeks of age) as intermediate and definitive hosts, respectively. Hamsters were infected and maintained in accordance with protocols approved by the Institutional Animal Care and Use Committee (IACUC) at the University of California San Diego. The acquisition, preparation and in vitro maintenance of S. mansoni have been described. Briefly, adult worms were harvested from hamsters 42 days post-infection in RPMI or DMEM, and washed five times prior to maintenance overnight at 37 °C and 5% CO2 in Basch medium containing 4% heat-inactivated FBS, 100 µg/mL streptomycin and 100 U/mL penicillin.
Ex vivo screens with adults employed 24-well flat-bottomed plates and approximately 5 males and 2–3 females/well. The complex and often dynamic phenotypic responses that the schistosome parasite is capable of were observed using a Zeiss Axiovert A1 inverted microscope at 24 h. Observations were classified using a constrained nomenclature that involves simple “descriptors” to convey changes in shape, motility and appearance, and the inability of the male worm to adhere to the bottom of the well, compared to DMSO controls. Each descriptor was given a value of 1 and these were added up to yield a “severity score” with a maximum of 4. Evidence of degeneracy or death was awarded a value of 4 as was damage to the tegument (parasite’s surface) on the understanding this would compromise survival in vivo. […] Data were averaged across two experiments for each compound concentration tested.

[6] = tested on: HEK-293T cells; assay: HEK293 cytotoxicity assay (resazurin); assay type: cell-based; details: human embryonic kidney cells, 48 h, max 4 µM; read-out: CC50 HEK923
Method: HEK-293T cells were cultured in DMEM (Gibco) supplemented with 10% heat inactivated FBS (Corning) and 1% penicillin-streptomycin (Gibco). Cells were maintained in vented T75 cell culture flasks (Thermo Scientific, Cat. 12-565-349) at 37 °C and 5% CO2, and were passaged every 72 h. […] Compounds were diluted with fresh DMEM (49 µL/well). HEK-293 cells were suspended at 4 × 10^5 cells/mL in DMEM and added to each well (50 µL/well) to give 2 × 10^4 cells/well. Assay plates were incubated at 37 °C and 5% CO2 for 48 h, followed by addition of 20 µL of 0.5 mM resazurin (Alfa Aesar, Cat. B21187) in PBS to each well. […] In each assay plate, cell viability was normalized relative to positive and negative controls. Assays were performed in biological and technical duplicates, and dose–response and CC50 data were generated with GraphPad Prism 5 using a sigmoidal four parameter logistic curve.

[7] = in B10R cells, 72 h, read-out: EC50 L. donovani ntracelular amastigotes
[8] = at all concentrations (10, 5, 2.5 and 1.25 µM), 24 h

COc1ccc(NC(=O)CCC(=O)O)cc1 [MS26, 4-(4-methoxyphenylamino)-4 oxobutanoic acid]
EC50 [1]: > 20000 nM | EC50 ([2]; Leishmania donovani, range over L. donovani and T. cruzi intracellular stages and both parent compounds, read-out: EC50 values against the intracellular stages of both parasites): 1080 to 4270 nM | EC50 [2, 7]: 1080 nM | EC50 ([3]; Trypanosoma cruzi, C2C12, 72 h): 3210 nM | CC50 [4]: > 20000 nM | severity score, adult S. mansoni ([5]; 10 µM, 24 h): zero | S. mansoni, adult worm: least concentration at which a severity score of 4 was recorded [5]: >10.0 µM

CCC[CH2][Sn]([CH2]CCC)([O]C(=O)CCC(=O)Nc1ccc(OC)cc1)[O]C(=O)CCC(=O)Nc1ccc(OC)cc1 [MS26Bu2]
EC50 [1]: 760 nM | EC50 [2, 7]: 280 nM | EC50 [3]: 530 nM | CC50 [4]: 140 nM | S. mansoni, adult worm: least concentration at which a severity score of 4 was recorded [5]: 1.25 µM | severity score, adult S. mansoni [5, 8]: 4 | CC50 [6]: 370 nM

CCC[CH2][Sn]([CH2]CCC)([CH2]CCC)[O]C(=O)CCC(=O)Nc1ccc(OC)cc1 [MS26Bu3]
EC50 [1]: 220 nM | EC50 [2, 7]: 210 nM | EC50 [3]: 110 nM | CC50 [4]: 220 nM | S. mansoni, adult worm: least concentration at which a severity score of 4 was recorded [5]: 1.25 µM | severity score, adult S. mansoni [5, 8]: 4 | CC50 [6]: 140 nM

CCC[CH2][Sn]([Cl])([Cl])[O]C(=O)CCC(=O)Nc1ccc(OC)cc1 [MS26BuSnCl2]
EC50 [1]: > 20000 nM | EC50 [2, 7]: > 20000 nM | EC50 [3]: > 20000 nM | CC50 [4]: 18100 nM | severity score, adult S. mansoni ([5]; 10 µM, 24 h): zero | S. mansoni, adult worm: least concentration at which a severity score of 4 was recorded [5]: >10.0 µM | CC50 [6]: > 4000 nM

COc1ccc(NC(=O)CCC(=O)[O][Sn]([CH]2CCCCC2)([CH]2CCCCC2)[CH]2CCCCC2)cc1 [MS26Cy3]
IC50 ([1]; Figure S1 dose response curves, RFU, read-out: IC50 against the promastigotes of L. donovani): 600 nM | EC50 [3]: 300 nM | S. mansoni, adult worm: least concentration at which a severity score of 4 was recorded [5]: 1.25 µM | severity score, adult S. mansoni [5, 8]: 4 | CC50 [6]: 110 nM

C[CH2][Sn]([CH2]C)([CH2]C)[O]C(=O)CCC(=O)Nc1ccc(OC)cc1 [MS26Et3]
EC50 [1]: 210 nM | L. donovani intracellular parasites eliminated ([2]; 5 µM): > 95% | EC50 [2, 7]: 190 nM | T. cruzi intracellular parasites eliminated ([3]; 5 µM): > 95% | EC50 [3]: 240 nM | CC50 [4]: 2790 nM | severity score, adult S. mansoni [5, 8]: 4

COc1ccc(NC(=O)CCC(=O)[O][Sn]([CH3])([CH3])[CH3])cc1 [MS26Me3]
EC50 [1]: > 20000 nM | EC50 [2, 7]: 3260 nM | EC50 [3]: > 20000 nM | CC50 [4]: 9410 nM | response of adult S. mansoni ([5]; 5 µM, 24 h): the same response as MS26Oct2 at 10 µM | severity score, adult S. mansoni ([5]; 10 µM, 24 h): lethal | S. mansoni, adult worm: least concentration at which a severity score of 4 was recorded [5]: 10 µM | CC50 [6]: 1240 nM

COc1ccc(NC(=O)CCC(=O)[O-])cc1.[Na+] [MS26Na, sodium 4-(4-methoxyphenylamino)-4 oxobutanoate]
EC50 [1]: 170 nM | EC50 [2, 7]: 3880 nM | EC50 [3]: 4270 nM | CC50 [4]: 1610 nM | severity score, adult S. mansoni ([5]; 10 µM, 24 h): zero | S. mansoni, adult worm: least concentration at which a severity score of 4 was recorded [5]: >10.0 µM | CC50 [6]: > 4000 nM

COc1ccc(NC(=O)CCC(=O)[O][Sn]([c]2ccccc2)([c]2ccccc2)[c]2ccccc2)cc1 [MS26Ph3]
EC50 [1]: 390 nM | EC50 [2, 7]: 9100 nM | EC50 [3]: > 20000 nM | CC50 [4]: 410 nM | S. mansoni, adult worm: least concentration at which a severity score of 4 was recorded [5]: 1.25 µM | severity score, adult S. mansoni [5, 8]: 4 | CC50 [6]: 360 nM

C=[CH][Sn]([CH]=C)([O]C(=O)CCC(=O)Nc1ccc(OC)cc1)[O]C(=O)CCC(=O)Nc1ccc(OC)cc1 [MS26vin2]
EC50 [1]: > 20000 nM | EC50 [2, 7]: > 20000 nM | EC50 [3]: > 20000 nM | CC50 [4]: > 20000 nM | severity score, adult S. mansoni ([5]; 10 µM, 24 h): zero | S. mansoni, adult worm: least concentration at which a severity score of 4 was recorded [5]: >10.0 µM | CC50 [6]: > 4000 nM

— publication PMC9785441, “A Broad Spectrum Antiparasitic Activity of Organotin (IV) Derivatives and Its Untargeted Proteomic Profiling Using Leishmania donovani” (Pathogens, 2022)
